According to ChEMBL document CHEMBL4002605, “Synthesis, identification and in vitro biological evaluation of some novel quinoline incorporated 1,3-thiazinan-4-one derivatives” (Bioorg Med Chem Lett, 2017):
≈ marks a conversion by molar mass, not a printed value.

Key:
Bacillus subtilis = assay: Antibacterial activity against Bacillus subtilis MTCC 441 by broth microdilution assay method; type: functional
Clostridium tetani = assay: Antibacterial activity against Clostridium tetani MTCC 449 by broth microdilution assay method; type: functional
[1] = test system: Mycobacterium tuberculosis; assay: Antitubercular activity against Mycobacterium tuberculosis H37Rv at 6 ug/mL; type: functional
Vibrio cholerae = assay: Antibacterial activity against Vibrio cholerae MTCC 3906 by broth microdilution assay method; type: functional
Salmonella typhi = assay: Antibacterial activity against Salmonella typhi MTCC 98 by broth microdilution assay method; type: functional, Salmonella enterica subsp. enterica serovar Typhi; conditions: Salmonella enterica
Streptococcus pneumoniae = assay: Antibacterial activity against Streptococcus pneumoniae MTCC 1936 by broth microdilution assay method; type: functional
Escherichia coli = assay: Antibacterial activity against Escherichia coli MTCC 443 by broth microdilution assay method; type: functional
Plasmodium falciparum = assay: Antimalarial activity against Plasmodium falciparum; type: functional

O=C1CCSC(c2ccc(Cl)cc2)N1CCNc1ccnc2cc(Cl)ccc12 (centres undefined)
MIC (Bacillus subtilis): 62.5 µg/mL (≈ 145 µM) | MIC (Clostridium tetani): 62.5 µg/mL (≈ 145 µM) | inhibition at 6 µg/mL [1]: 73% | MIC (Vibrio cholerae): 125 µg/mL (≈ 289 µM) | MIC (Salmonella typhi): 250 µg/mL (≈ 578 µM) | MIC (Streptococcus pneumoniae): 125 µg/mL (≈ 289 µM) | MIC (Escherichia coli): 125 µg/mL (≈ 289 µM) | IC50 (Plasmodium falciparum): 0.098 µg/mL (≈ 0.227 µM)

COc1ccc(C2SCCC(=O)N2CCNc2ccnc3cc(Cl)ccc23)cc1 (centres undefined)
MIC (Bacillus subtilis): 250 µg/mL (≈ 584 µM) | MIC (Clostridium tetani): 125 µg/mL (≈ 292 µM) | inhibition at 6 µg/mL [1]: 60% | MIC (Vibrio cholerae): 250 µg/mL (≈ 584 µM) | MIC (Salmonella typhi): 250 µg/mL (≈ 584 µM) | MIC (Streptococcus pneumoniae): 250 µg/mL (≈ 584 µM) | MIC (Escherichia coli): 125 µg/mL (≈ 292 µM) | IC50 (Plasmodium falciparum): 0.62 µg/mL (≈ 1.45 µM)

Cc1ccc(C2SCCC(=O)N2CCNc2ccnc3cc(Cl)ccc23)cc1 (centres undefined)
MIC (Bacillus subtilis): 250 µg/mL (≈ 607 µM) | MIC (Clostridium tetani): 250 µg/mL (≈ 607 µM) | inhibition at 6 µg/mL [1]: 57% | MIC (Vibrio cholerae): 250 µg/mL (≈ 607 µM) | MIC (Salmonella typhi): 500 µg/mL (≈ 1210 µM) | MIC (Streptococcus pneumoniae): 500 µg/mL (≈ 1210 µM) | MIC (Escherichia coli): 250 µg/mL (≈ 607 µM) | IC50 (Plasmodium falciparum): 1.97 µg/mL (≈ 4.78 µM)

O=C(NN1C(=O)CCSC1c1cccc(F)c1)c1cnc2c(C(F)(F)F)cccc2c1O (centres undefined)
MIC (Bacillus subtilis): 125 µg/mL (≈ 269 µM) | MIC (Clostridium tetani): 125 µg/mL (≈ 269 µM) | inhibition at 6 µg/mL [1]: 73% | MIC (Vibrio cholerae): 125 µg/mL (≈ 269 µM) | MIC (Salmonella typhi): 250 µg/mL (≈ 537 µM) | MIC (Streptococcus pneumoniae): 250 µg/mL (≈ 537 µM) | MIC (Escherichia coli): 125 µg/mL (≈ 269 µM) | IC50 (Plasmodium falciparum): 0.91 µg/mL (≈ 1.96 µM)

O=C1CCSC(c2ccc(F)cc2)N1CCNc1ccnc2cc(Cl)ccc12 (centres undefined)
MIC (Bacillus subtilis): 62.5 µg/mL (≈ 150 µM) | MIC (Clostridium tetani): 15.6 µg/mL (≈ 37.5 µM) | inhibition at 6 µg/mL [1]: 80% | MIC (Vibrio cholerae): 125 µg/mL (≈ 301 µM) | MIC (Salmonella typhi): 62.5 µg/mL (≈ 150 µM) | MIC (Streptococcus pneumoniae): 62.5 µg/mL (≈ 150 µM) | MIC (Escherichia coli): 62.5 µg/mL (≈ 150 µM) | IC50 (Plasmodium falciparum): 0.081 µg/mL (≈ 0.195 µM)

O=C(NN1C(=O)CCSC1c1ccccc1)c1cnc2c(C(F)(F)F)cccc2c1O (centres undefined)
MIC (Bacillus subtilis): 250 µg/mL (≈ 559 µM) | MIC (Clostridium tetani): 500 µg/mL (≈ 1120 µM) | inhibition at 6 µg/mL [1]: 55% | MIC (Vibrio cholerae): 500 µg/mL (≈ 1120 µM) | MIC (Salmonella typhi): 500 µg/mL (≈ 1120 µM) | MIC (Streptococcus pneumoniae): 500 µg/mL (≈ 1120 µM) | MIC (Escherichia coli): 500 µg/mL (≈ 1120 µM) | IC50 (Plasmodium falciparum): 2.1 µg/mL (≈ 4.69 µM)

O=C1CCSC(c2ccccc2)N1CCNc1ccnc2cc(Cl)ccc12 (centres undefined)
MIC (Bacillus subtilis): 250 µg/mL (≈ 628 µM) | MIC (Clostridium tetani): 250 µg/mL (≈ 628 µM) | inhibition at 6 µg/mL [1]: 50% | MIC (Vibrio cholerae): 250 µg/mL (≈ 628 µM) | MIC (Salmonella typhi): 500 µg/mL (≈ 1260 µM) | MIC (Streptococcus pneumoniae): 500 µg/mL (≈ 1260 µM) | MIC (Escherichia coli): 500 µg/mL (≈ 1260 µM) | IC50 (Plasmodium falciparum): 2.7 µg/mL (≈ 6.79 µM)

O=C1CCSC(c2ccc(Br)cc2)N1CCNc1ccnc2cc(Cl)ccc12 (centres undefined)
MIC (Bacillus subtilis): 31.2 µg/mL (≈ 65.5 µM) | MIC (Clostridium tetani): 31.2 µg/mL (≈ 65.5 µM) | inhibition at 6 µg/mL [1]: 95% | MIC (Vibrio cholerae): 31.2 µg/mL (≈ 65.5 µM) | MIC (Salmonella typhi): 100 µg/mL (≈ 210 µM) | MIC (Streptococcus pneumoniae): 62.5 µg/mL (≈ 131 µM) | MIC (Escherichia coli): 125 µg/mL (≈ 262 µM) | IC50 (Plasmodium falciparum): 0.045 µg/mL (≈ 0.0944 µM)
